The source of these data is US20230293560A1, “METHOD FOR MODULATING THE BLADDER MICROBIOME TO IMPROVE BLADDER HEALTH” (Kimberly-Clark Worldwide, Inc., priority 2020, published 2023).

One test has as its system E. faecalis. Nature of the test: High throughput assay screening of prebiotics. The arrangement: key: ++: if growth and fermentation was equal to or greater than the positive control; +: if growth and fermentation was less than the positive control; +: if weak or no growth or fermentation; +^2: Bacteria demonstrated growth but no fermentation on the prebiotic. It counts as cell-based, Enterococcus faecalis. The settings on record: 2% w/v prebiotic in API 50 CHL media; for growth and fermentation vs positive control, Ef-3: E. faecalis KC17-3969-2B, Bladder; for growth and fermentation vs positive control, Ef-4: E. faecalis KC17-4331-3, Bladder; for growth and fermentation vs positive control, Ef-1: E. faecalis ATCC BAA-2128, Culture Collection; for growth and fermentation vs positive control, Ef-2: E. faecalis KC16-7171-3, Bladder. As to the method:
(§1) Most of the prebiotic compounds were initially tested in a high throughput assay screening process, described further in the Test Methods section herein, but three prebiotics (as noted in Table 3) were tested using a plate assay screening process as described in the Test Methods section herein. The prebiotics were tested against the commensal bacterial species of Lactobacillus crispatus, Lactobacillus gasseri, and Lactobacillus jensenii and against the pathogenic bacterial species of Streptococcus anginosus and Enterococcus faecalis as shown in Table 2. The bacterial species were taken from different sources, listed as culture collection, bladder, and vagina.
(§2) The results of the assay plate screening of the prebiotic compounds of Table 1 against the bacterial species of Table 2 is documented in Table 3 with the results being described by the following legend: • ++ if growth and fermentation was equal to or greater than the positive control • + if growth and fermentation was less than the positive control • […] if weak or no growth or fermentation • NT if not tested Some codes were not tested based on the use or non-use by the bacteria, as a way to efficiently move through the assay plate screening to the competition assay, described below.
(§3) • 1. Create a 2% w/v stock of prebiotic or positive control (glucose/dextrose) to be tested in API 50 CHL media (Biomerieux, Marcy-I'Étoile, France). API 50 CHL media contains minimal amounts of carbon for growth, and a bromocresol purple as a pH indicator of fermentation. Filter sterilize media with a […]. Store at 4-6° C. until use. • 2. Add 180 μL of media containing the prebiotic to a sterile, flat bottom 96-well microtiter plate (Corning, Corning, NY). • 3. From a freezer stock subculture the bacteria twice into De Man, Rogosa and Sharpe (MRS) broth (BD Difco, Becton Dickinson, Franklin Lakes, NJ), 37° C., stationary, anaerobic, overnight. • 4. From the last subculture, plate onto an MRS agar plate (Teknova, Hollister, CA) and grow 37° C., stationary, anaerobic, overnight. • 5. Create a bacterial suspension by using a sterile tipped swab to transfer colonies of bacteria into a PBS suspension blank to a 0.5 MacFarland (S. anginosus or E. faecalis) or a 1 MacFarland (Lactobacillus species) from the MRS agar plate. • 6. Enumerate the starting culture. • 7. Inoculate the media alone and media containing the prebiotic or positive control with 20 μL of the bacterial suspension. • 8. Place the plate into a spectrophotometer (Molecular Devices, San Jose, CA) and read the plate every 20 minutes for 24-48 hours. Read wavelengths (OD 430, OD 590, and OD 660). A color change to yellow caused by a drop in pH will be read by an increase in the OD430 value and a decrease in the OD590 value and is indicative of bacterial fermentation. An increase in OD660 values is indicative of an increase in turbidity and bacterial growth.

A further test deals with L. crispatus. Nature of the test: High throughput assay screening of prebiotics. The arrangement: key: ++: if growth and fermentation was equal to or greater than the positive control; +: if growth and fermentation was less than the positive control; +: if weak or no growth or fermentation; +^2: Bacteria demonstrated growth but no fermentation on the prebiotic. The following applies: 2% w/v prebiotic in API 50 CHL media; for growth and fermentation vs positive control, Lc-4: L. crispatus KC18-1174-1, Vagina; for growth and fermentation vs positive control, Lc-1: L. crispatus ATCC 33820, Culture Collection; for growth and fermentation vs positive control, Lc-2: L. crispatus KC16-7134-3C, Bladder; for growth and fermentation vs positive control, Lc-3: L. crispatus KC18-1173-1, Bladder. It counts as cell-based, Lactobacillus crispatus. As to the method:
as §1, §2, §3

A further test concerns S. anginosus. Nature of the test: High throughput assay screening of prebiotics. It counts as cell-based, Streptococcus anginosus. The arrangement: key: ++: if growth and fermentation was equal to or greater than the positive control; +: if growth and fermentation was less than the positive control; +: if weak or no growth or fermentation; +^2: Bacteria demonstrated growth but no fermentation on the prebiotic. The following applies: 2% w/v prebiotic in API 50 CHL media; for growth and fermentation vs positive control, Sa-2: S. anginosus KC18-1131-3B, Bladder; for growth and fermentation vs positive control, Sa-1: S. anginosus ATCC 33397, Culture Collection. How it is done:
as §1, §2, §3

In the next test the test system is L. gasseri. In words: High throughput assay screening of prebiotics. It counts as cell-based, Lactobacillus gasseri. The arrangement: key: ++: if growth and fermentation was equal to or greater than the positive control; +: if growth and fermentation was less than the positive control; +: if weak or no growth or fermentation; +^2: Bacteria demonstrated growth but no fermentation on the prebiotic. The settings on record: 2% w/v prebiotic in API 50 CHL media; for growth and fermentation vs positive control, Lg-1: L. gasseri KC16-7135-1, Bladder; for growth and fermentation vs positive control, Lg-2: L. gasseri KC16-7171-1, Bladder. How it is done: as §1, §2, §3

The subject of test [1] is commensal and pathogenic bacterial species. Nature of the test: Prebiotic screening, summary in words across species. The settings on record: commensal (L. crispatus, L. gasseri, L. jensenii) and pathogenic (S. anginosus, E. faecalis) species. It counts as cell-based. As to the method: as §1, §2, §3
• 1. An in house bacterial agar was created based on MRS agar (Kaplan and Hutkins, 2000) where the glucose is substituted for the prebiotic to be tested (either dextran MW ˜6,000, alpha-cyclodextrin, glucomannan, or pectin), bromocresol purple was included as a pH indicator. • 2. Bacteria were enumerated on each agar and color changes were recorded. Method for Competition Assay (Modified from “In Vitro Evaluation of Nutrients that Selectively Confer a Competitive Advantage to Lactobacilli” Vongsa et al, Beneficial Microbes 2016) • 1. Create 2% w/v stock of prebiotic or positive control (glucose/dextrose) as described above. • 2. From a freezer stock subculture the bacteria twice into De Man, Rogosa and Sharpe (MRS) broth (BD Difco, Becton Dickinson, Franklin Lakes, NJ), 37° C., stationary, anaerobic, overnight. • 3. From the last subculture, plate onto an MRS agar plate for L. crispatus KC18-1173-1 or blood agar for S. anginosus KC18-1131-3B, grow 37° C., stationary, anaerobic, overnight. • 4. […]

Regarding `OC[C@H]1O[C@@H](O[C@@H]2[C@@H](CO)OC(O)(CO)[C@H]2O)[C@H](O)[C@@H](O)[C@H]1O` (mixture of isomers) [Lactulose], in the test on E. faecalis, the “growth and fermentation vs positive control, Ef-3” value was “+^2”; the “growth and fermentation vs positive control, Ef-4” value was “+^2”. The “growth and fermentation vs positive control, Lc-4” value in the test on L. crispatus is recorded as “++”. The “growth and fermentation vs positive control, Sa-2” value in the test on S. anginosus was “++”. Besides, the “growth and fermentation vs positive control, Lg-4” value in the test with L. gasseri (L. gasseri KC18-1142-2, Bladder) is reported as “+”.
Turning to `O=C(O)CC(O)C(=O)O` (racemic) [DL-Malic acid, DL-Malic acid (Malate)], the “overall outcome of the screening of Table 3, in words” value (from here on “overall outcome”) in test [1] was “not able to provide growth for most, if not all, commensal and pathogenic bacterial species”.
Turning to `CC(=O)N[C@H]1C(O)O[C@H](CO)[C@@H](O)[C@@H]1O` (stereo partly shown) [N-Acetylglucosamine], in the test on E. faecalis, the “growth and fermentation vs positive control, Ef-1” value is “++”; the “growth and fermentation vs positive control, Ef-2” value is “++”; the “growth and fermentation vs positive control, Ef-3” value was “++”; the “growth and fermentation vs positive control, Ef-4” value was “++”. In the test with L. crispatus, the “growth and fermentation vs positive control, Lc-1” value was “++”; the “growth and fermentation vs positive control, Lc-2” value was “+”; the “growth and fermentation vs positive control, Lc-3” value was “++”; the “growth and fermentation vs positive control, Lc-4” value is “+”. Besides, in the test on S. anginosus, the “growth and fermentation vs positive control, Sa-1” value is recorded as “++”; the “growth and fermentation vs positive control, Sa-2” value is “++”. For the same molecule, in the test with L. gasseri, the “growth and fermentation vs positive control, Lg-1” value is reported as “++”; the “growth and fermentation vs positive control, Lg-2” value was “++”. In addition, the “overall outcome” value in test [1] is “able to provide growth on the commensal bacterial species, but also provided growth on the pathogenic bacterial species”.
On to `OC[C@H]1O[C@@H](O)[C@H](O)[C@@H](O)[C@@H]1O` [Beta-D-glucose, Beta-D-Glucose], for which, in the test on E. faecalis, the “growth and fermentation vs positive control, Ef-1” value is on record as “++”; the “growth and fermentation vs positive control, Ef-2” value was “++”; the “growth and fermentation vs positive control, Ef-3” value is on record as “++”; the “growth and fermentation vs positive control, Ef-4” value is listed as “++”. Besides, in the test on L. crispatus, the “growth and fermentation vs positive control, Lc-1” value was “++”; the “growth and fermentation vs positive control, Lc-2” value was “++”; the “growth and fermentation vs positive control, Lc-3” value was “++”; the “growth and fermentation vs positive control, Lc-4” value is “++”. For the same molecule, in the test on S. anginosus, the “growth and fermentation vs positive control, Sa-1” value was “++”; the “growth and fermentation vs positive control, Sa-2” value was “++”. Further, in the test on L. gasseri, the “growth and fermentation vs positive control, Lg-1” value is reported as “++”; the “growth and fermentation vs positive control, Lg-2” value is reported as “++”. In addition, in test [1], the “overall outcome” value is given as “able to provide growth on the commensal bacterial species, but also provided growth on the pathogenic bacterial species”.
On to `OC[C@@H](O)[C@H](O)[C@@H](O)CO` [Xylitol], for which the “overall outcome” value in test [1] is “not able to provide growth for most, if not all, commensal and pathogenic bacterial species”.
As to `O=C(CO)[C@@H](O)[C@@H](O)[C@H](O)CO` [Tagatose], in the test on E. faecalis, the “growth and fermentation vs positive control, Ef-1” value is listed as “++”; the “growth and fermentation vs positive control, Ef-2” value is given as “++”; the “growth and fermentation vs positive control, Ef-3” value is listed as “++”; the “growth and fermentation vs positive control, Ef-4” value is “++”.
